Reference: ChEMBL document CHEMBL4346657, “Anticancer activity, dual prooxidant/antioxidant effect and apoptosis induction profile of new bichalcophene-5-carboxamidines” (Eur J Med Chem, 2019)

Assays:
TK-10 = experiment: Antiproliferative activity against human TK10 cells assessed as growth inhibition after 48 hrs by sulforhodamine B assay; format: functional; conditions: TK-10, 48 h
[1] = test system: Panel NCI-60 (60 carcinoma cell lines); experiment: Antiproliferative activity against human NCI60 cells assessed as growth inhibition after 48 hrs by sulforhodamine B assay; format: functional
WI-38 = experiment: Cytotoxicity activity against human WI38 cells assessed as reduction in cell viability measured after 48 hrs by MTT assay; format: cell-based; conditions: WI-38, 48 h
MDA-MB-231 = experiment: Antiproliferative activity against human MDA-MB-231/ATCC cells assessed as growth inhibition after 48 hrs by sulforhodamine B assay; format: functional; conditions: MDA-MB-231, 48 h
OVCAR-3 = experiment: Antiproliferative activity against human OVCAR3 cells assessed as growth inhibition after 48 hrs by sulforhodamine B assay; format: functional; conditions: OVCAR-3, 48 h
[2] = test system: Panel NCI-60 (60 carcinoma cell lines); experiment: Antiproliferative activity against human NCI60 cells assessed as growth inhibition at 10 uM after 48 hrs by sulforhodamine B assay; format: functional; conditions: read-out: GI
RXF 393 = experiment: Antiproliferative activity against human RXF393 cells assessed as growth inhibition after 48 hrs by sulforhodamine B assay; format: functional; conditions: RXF 393, 48 h
ACHN = experiment: Antiproliferative activity against human ACHN cells assessed as growth inhibition after 48 hrs by sulforhodamine B assay; format: functional
A498 = experiment: Antiproliferative activity against human A498 cells assessed as growth inhibition after 48 hrs by sulforhodamine B assay; format: functional; conditions: A498, 48 h
786-0 = experiment: Antiproliferative activity against human 786-0 cells assessed as growth inhibition after 48 hrs by sulforhodamine B assay; format: functional; conditions: 786-0, 48 h
SK-OV-3 = experiment: Antiproliferative activity against human SKOV3 cells assessed as growth inhibition after 48 hrs by sulforhodamine B assay; format: functional; conditions: SK-OV-3, 48 h
NCI/ADR-RES = experiment: Antiproliferative activity against human NCI-ADR-RES cells assessed as growth inhibition after 48 hrs by sulforhodamine B assay; format: functional
OVCAR-8 = experiment: Antiproliferative activity against human OVCAR8 cells assessed as growth inhibition after 48 hrs by sulforhodamine B assay; format: functional; conditions: OVCAR-8, 48 h
OVCAR-4 = experiment: Antiproliferative activity against human OVCAR4 cells assessed as growth inhibition after 48 hrs by sulforhodamine B assay; format: functional; conditions: OVCAR-4, 48 h
IGROV-1 = experiment: Antiproliferative activity against human IGROV1 cells assessed as growth inhibition after 48 hrs by sulforhodamine B assay; format: functional; conditions: IGROV-1, 48 h
UACC-257 = experiment: Antiproliferative activity against human UACC257 cells assessed as growth inhibition after 48 hrs by sulforhodamine B assay; format: functional; conditions: UACC-257, 48 h
Malme-3M = experiment: Antiproliferative activity against human MALME-3M cells assessed as growth inhibition after 48 hrs by sulforhodamine B assay; format: functional
U-251 = experiment: Antiproliferative activity against human U251 cells assessed as growth inhibition after 48 hrs by sulforhodamine B assay; format: functional; conditions: U-251, 48 h
SNB-75 = experiment: Antiproliferative activity against human SNB75 cells assessed as growth inhibition after 48 hrs by sulforhodamine B assay; format: functional; conditions: SNB-75, 48 h
SF-295 = experiment: Antiproliferative activity against human SF295 cells assessed as growth inhibition after 48 hrs by sulforhodamine B assay; format: functional; conditions: SF-295, 48 h
SF-268 = experiment: Antiproliferative activity against human SF268 cells assessed as growth inhibition after 48 hrs by sulforhodamine B assay; format: functional; conditions: SF-268, 48 h
SW-620 = experiment: Antiproliferative activity against human SW620 cells assessed as growth inhibition after 48 hrs by sulforhodamine B assay; format: functional; conditions: SW-620, 48 h
HT-29 = experiment: Antiproliferative activity against human HT-29 cells assessed as growth inhibition after 48 hrs by sulforhodamine B assay; format: functional; conditions: HT-29, 48 h
HCT-116 [3] = experiment: Antiproliferative activity against human HCT116 cells assessed as growth inhibition after 48 hrs by sulforhodamine B assay; format: functional; conditions: HCT-116, 48 h
HCC 2998 = experiment: Antiproliferative activity against human HCC2998 cells assessed as growth inhibition after 48 hrs by sulforhodamine B assay; format: functional; conditions: HCC 2998, 48 h
NCI-H522 = experiment: Antiproliferative activity against human NCI-H522 cells assessed as growth inhibition after 48 hrs by sulforhodamine B assay; format: functional; conditions: NCI-H522, 48 h
NCI-H460 = experiment: Antiproliferative activity against human NCI-H460 cells assessed as growth inhibition after 48 hrs by sulforhodamine B assay; format: functional; conditions: NCI-H460, 48 h
NCI-H23 = experiment: Antiproliferative activity against human NCI-H23 cells assessed as growth inhibition after 48 hrs by sulforhodamine B assay; format: functional; conditions: NCI-H23, 48 h
NCI-H226 = experiment: Antiproliferative activity against human NCI-H226 cells assessed as growth inhibition after 48 hrs by sulforhodamine B assay; format: functional; conditions: NCI-H226, 48 h
HOP-62 = experiment: Antiproliferative activity against human HOP62 cells assessed as growth inhibition after 48 hrs by sulforhodamine B assay; format: functional; conditions: HOP-62, 48 h
RPMI-8226 = experiment: Antiproliferative activity against human RPMI8226 cells assessed as growth inhibition after 48 hrs by sulforhodamine B assay; format: functional; conditions: RPMI-8226, 48 h
MOLT-4 = experiment: Antiproliferative activity against human MOLT4 cells assessed as growth inhibition after 48 hrs by sulforhodamine B assay; format: functional; conditions: MOLT-4, 48 h
Hs-578T = experiment: Antiproliferative activity against human Hs578T cells assessed as growth inhibition after 48 hrs by sulforhodamine B assay; format: functional
BT-549 = experiment: Antiproliferative activity against human BT549 cells assessed as growth inhibition after 48 hrs by sulforhodamine B assay; format: functional; conditions: BT-549, 48 h
[4] = Haemolytic activity in human erythrocytes assessed as induction of hemolysis at 10 mM after 30 mins relative to H202; format: cell-based, Erythrocyte; conditions: read-out: Activity
[5] = Haemolytic activity in human erythrocytes assessed as induction of hemolysis at 5 mM after 30 mins relative to H202; format: cell-based, Erythrocyte; conditions: read-out: Activity
Erythrocyte = experiment: Haemolytic activity in human erythrocytes assessed as induction of hemolysis at 0.625 mM after 30 mins relative to H202; format: cell-based; conditions: erythrocyte, 0.5 h, 625 µM
[6] = Antioxidant activity assessed as DPPH radical scavenging activity incubated in dark for 30 mins by spectrophotometric method relative to control; format: functional; parameters: concentration or dose not given beside the values
[7] = Antioxidant activity assessed as DPPH radical scavenging activity incubated in dark for 30 mins by spectrophotometric method relative to ascorbic acid; format: functional
[8] = Antioxidant activity assessed as ABTS radical scavenging activity by spectrophotometric method relative to ascorbic acid; format: functional
HCT-116 [9] = experiment: Induction of apoptosis in human HCT116 cells assessed as increase in caspase 3 mRNA expression at 100 nM after 6 hrs hrs by SYBR green dye-based qRT-PCR analysis relative to control; format: functional
HCT-116 [10] = experiment: […] in CDK1 mRNA expression in human HCT116 cells at 100 nM after 6 hrs hrs by SYBR green dye-based qRT-PCR analysis relative to control; format: functional

N=C(N)c1ccc(-c2ccc(-c3ccc(F)cc3)o2)o1
GI50 (TK-10): 1550 nM
GI50 [1]: 1470 nM
LC50 [1]: 9550 nM
TGI [1]: 3460 nM
IC50 (WI-38): 10600 nM
GI50 (MDA-MB-231): 1570 nM
GI50 (OVCAR-3): 1840 nM
inhibition of growth at 10 µM [2]: 83.8%
GI50 (RXF 393): 1600 nM
GI50 (ACHN): 1600 nM
GI50 (A498): 1900 nM
GI50 (786-0): 1660 nM
GI50 (SK-OV-3): 2320 nM
GI50 (NCI/ADR-RES): 1680 nM
GI50 (OVCAR-8): 1980 nM
GI50 (OVCAR-4): 1620 nM
GI50 (IGROV-1): 1580 nM
GI50 (UACC-257): 1980 nM
GI50 (Malme-3M): 1630 nM
GI50 (U-251): 1600 nM
GI50 (SNB-75): 1550 nM
GI50 (SF-295): 1510 nM
GI50 (SF-268): 1920 nM
GI50 (SW-620): 940 nM
GI50 (HT-29): 610 nM
GI50 (HCT-116 [3]): 1180 nM
GI50 (HCC 2998): 1370 nM
GI50 (NCI-H522): 1360 nM
GI50 (NCI-H460): 1760 nM
GI50 (NCI-H23): 1930 nM
GI50 (NCI-H226): 2820 nM
GI50 (HOP-62): 1600 nM
GI50 (RPMI-8226): 2480 nM
GI50 (MOLT-4): 1600 nM
GI50 (Hs-578T): 1950 nM
GI50 (BT-549): 2270 nM
hemolysis at 0.5 h, 10000 µM [4]: 90%
hemolysis at 0.5 h, 5000 µM [5]: 66.3%
Activity (Erythrocyte): Non-Toxic
inhibition [6]: 9.9%
fold change (FC) [7]: 0.1
fold change (FC) [8]: 0.1
fold change (FC) (HCT-116 [9]): 3.88
fold change (FC) (HCT-116 [10]): 1.07

COc1cc(OC)cc(-c2ccc(-c3ccc(C(=N)N)o3)o2)c1
GI50 (TK-10): 13400 nM
GI50 [1]: 3020 nM
LC50 [1]: 22900 nM
TGI [1]: 8120 nM
IC50 (WI-38): 81600 nM
GI50 (MDA-MB-231): 2350 nM
GI50 (OVCAR-3): 3260 nM
inhibition of growth at 10 µM [2]: 55.9%
GI50 (RXF 393): 1930 nM
GI50 (ACHN): 2050 nM
GI50 (A498): 2890 nM
GI50 (786-0): 4150 nM
GI50 (SK-OV-3): 14900 nM
GI50 (NCI/ADR-RES): 8260 nM
GI50 (OVCAR-8): 3750 nM
GI50 (OVCAR-4): 3510 nM
GI50 (IGROV-1): 2970 nM
GI50 (UACC-257): 2410 nM
GI50 (Malme-3M): 2040 nM
GI50 (U-251): 2450 nM
GI50 (SNB-75): 2200 nM
GI50 (SF-295): 2080 nM
GI50 (SF-268): 3400 nM
GI50 (SW-620): 1880 nM
GI50 (HT-29): 2770 nM
GI50 (HCT-116 [3]): 2510 nM
GI50 (HCC 2998): 2050 nM
GI50 (NCI-H522): 2300 nM
GI50 (NCI-H460): 2320 nM
GI50 (NCI-H23): 9250 nM
GI50 (NCI-H226): 2260 nM
GI50 (HOP-62): 5650 nM
GI50 (RPMI-8226): 2250 nM
GI50 (MOLT-4): 2440 nM
GI50 (Hs-578T): 8120 nM
GI50 (BT-549): 6910 nM
hemolysis at 0.5 h, 10000 µM [4]: 19.3%
hemolysis at 0.5 h, 5000 µM [5]: 7.5%
Activity (Erythrocyte): Non-Toxic
inhibition [6]: 31%
fold change (FC) [7]: 0.3
fold change (FC) [8]: 0.4
fold change (FC) (HCT-116 [9]): 4.1
fold change (FC) (HCT-116 [10]): 1.24

COc1cc(-c2ccc(-c3ccc(C(=N)N)s3)s2)cc(OC)c1OC
GI50 (TK-10): 2700 nM
GI50 [1]: 1910 nM
LC50 [1]: 20900 nM
TGI [1]: 4160 nM
IC50 (WI-38): 65700 nM
GI50 (MDA-MB-231): 1880 nM
GI50 (OVCAR-3): 2220 nM
inhibition of growth at 10 µM [2]: 73.5%
GI50 (RXF 393): 1660 nM
GI50 (ACHN): 1780 nM
GI50 (A498): 2250 nM
GI50 (786-0): 1730 nM
GI50 (SK-OV-3): 5150 nM
GI50 (NCI/ADR-RES): 3440 nM
GI50 (OVCAR-8): 2620 nM
GI50 (OVCAR-4): 1820 nM
GI50 (IGROV-1): 1980 nM
GI50 (UACC-257): 2220 nM
GI50 (Malme-3M): 1740 nM
GI50 (U-251): 1990 nM
GI50 (SNB-75): 1500 nM
GI50 (SF-295): 1780 nM
GI50 (SF-268): 1740 nM
GI50 (SW-620): 1910 nM
GI50 (HT-29): 1240 nM
GI50 (HCT-116 [3]): 1730 nM
GI50 (HCC 2998): 1760 nM
GI50 (NCI-H522): 1940 nM
GI50 (NCI-H460): 1990 nM
GI50 (NCI-H23): 2610 nM
GI50 (NCI-H226): 1880 nM
GI50 (HOP-62): 1970 nM
GI50 (RPMI-8226): 2460 nM
GI50 (MOLT-4): 2400 nM
GI50 (BT-549): 1770 nM
hemolysis at 0.5 h, 10000 µM [4]: 79.7%
hemolysis at 0.5 h, 5000 µM [5]: 38.7%
Activity (Erythrocyte): Non-Toxic
inhibition [6]: 64.1%
fold change (FC) [7]: 0.7
fold change (FC) [8]: 0.8
fold change (FC) (HCT-116 [9]): 2.67
fold change (FC) (HCT-116 [10]): 0.81
